What follows are molecules tested on HCV pseudoparticles (genotype 1a HCV E1 and E2 envelope, H77C isolate) (assay: microbe, parasite or virus in culture). Conditions: Hepatitis C virus, Huh-7, 48 h, HCV pseudoparticle infection of Huh7 cells, luciferase 2 days after infection; average of duplicates.
Assay type: cell-based

Row | SMILES | EC50
1 | COC(=O)[C@H](CCNC(=O)C(=O)NCC(C)c1ccccc1)NC(=O)c1ccc(Nc2nc(NC3(c4ccc(Cl)cc4)CC3)nc(OCC(F)(F)F)n2)cc1 (stereo partly drawn) [Compound 1307] | 0.38 nM
2 | COC(=O)[C@H](CCNC(=O)C(=O)NCCc1ccc(OC)cc1)NC(=O)c1ccc(Nc2nc(NC3(c4ccc(Cl)cc4)CC3)nc(OCC(F)(F)F)n2)cc1 [Compound 1310] | 0.62 nM
3 | COC(=O)[C@H](CCNC(=O)C(=O)NC1Cc2ccccc2C1)NC(=O)c1ccc(Nc2nc(NC3(c4ccc(Cl)cc4)CC3)nc(OCC(F)(F)F)n2)cc1 [Compound 1314] | 0.43 nM
4 | COC(=O)[C@H](CCNC(=O)C(=O)NCCc1ccc(F)cc1)NC(=O)c1ccc(Nc2nc(NC3(c4ccc(Cl)cc4)CC3)nc(OCC(F)(F)F)n2)cc1 [Compound 1315] | 1.03 nM
5 | COC(=O)[C@H](CCNC(=O)C(=O)NCCc1cccnc1)NC(=O)c1ccc(Nc2nc(NC3(c4ccc(Cl)cc4)CC3)nc(OCC(F)(F)F)n2)cc1 [Compound 1316] | 0.57 nM
6 | COC(=O)[C@H](CCNC(=O)C(=O)NCCn1ccnc1C)NC(=O)c1ccc(Nc2nc(NC3(c4ccc(Cl)cc4)CC3)nc(OCC(F)(F)F)n2)cc1 [Compound 1323] | 6.28 nM
7 | O=C(NCCc1ccc(F)cc1)C(=O)NCC[C@H](NC(=O)c1ccc(Nc2nc(NC3(c4ccc(Cl)cc4)CC3)nc(OCC(F)(F)F)n2)cc1)C(=O)O [Compound 1336] | 0.88 nM
8 | CC(C)(Cc1ccc(F)cc1)NC(=O)C(=O)NCC[C@H](NC(=O)c1ccc(Nc2nc(NC3(c4ccc(Cl)cc4)CC3)nc(OCC(F)(F)F)n2)cc1)C(=O)O [Compound 1340] | 0.1 nM

Same assay, conditions: Hepatitis C virus, Huh-7, 48 h, read-out: Activity (EC50 class), HCV pseudoparticle infection of Huh7 cells, luciferase 2 days after infection; EC50 expressed as class A/B

Row | SMILES | EC50
9 | COC(=O)[C@H](CNC(=O)C(=O)NCC1OCCc2ccccc21)NC(=O)c1ccc(Nc2nc(NC3(c4ccc(Cl)cc4)CC3)nc(OCC(F)(F)F)n2)cc1 (stereo partly drawn) [Compound 1297] | 0.01 to 10 nM
10 | COC(=O)[C@H](CNC(=O)C(=O)NCCn1cncn1)NC(=O)c1ccc(Nc2nc(NC3(c4ccc(Cl)cc4)CC3)nc(OCC(F)(F)F)n2)cc1 [Compound 1298] | 0.01 to 10 nM
11 | COC(=O)[C@H](CNC(=O)C(=O)NCC1CCCc2ccccc21)NC(=O)c1ccc(Nc2nc(NC3(c4ccc(Cl)cc4)CC3)nc(OCC(F)(F)F)n2)cc1 (stereo partly drawn) [Compound 1299] | 0.01 to 10 nM
12 | COC(=O)[C@H](CNC(=O)C(=O)NCCn1cccn1)NC(=O)c1ccc(Nc2nc(NC3(c4ccc(Cl)cc4)CC3)nc(OCC(F)(F)F)n2)cc1 [Compound 1300] | 0.01 to 10 nM
13 | COC(=O)[C@H](CNC(=O)C(=O)NCCn1ccnc1C)NC(=O)c1ccc(Nc2nc(NC3(c4ccc(Cl)cc4)CC3)nc(OCC(F)(F)F)n2)cc1 [Compound 1301] | 0.01 to 10 nM
14 | COC(=O)[C@H](CNC(=O)C(=O)NCCc1cnn(C)c1)NC(=O)c1ccc(Nc2nc(NC3(c4ccc(Cl)cc4)CC3)nc(OCC(F)(F)F)n2)cc1 [Compound 1302] | 0.01 to 10 nM
15 | COC(=O)[C@H](CNC(=O)C(=O)NCC1CCc2ccccc21)NC(=O)c1ccc(Nc2nc(NC3(c4ccc(Cl)cc4)CC3)nc(OCC(F)(F)F)n2)cc1 (stereo partly drawn) [Compound 1303] | 0.01 to 10 nM
16 | COC(=O)[C@H](CNC(=O)C(=O)NC1(Cc2ccccc2)CC1)NC(=O)c1ccc(Nc2nc(NC3(c4ccc(Cl)cc4)CC3)nc(OCC(F)(F)F)n2)cc1 [Compound 1304] | 0.01 to 10 nM
17 | COC(=O)[C@H](CNC(=O)C(=O)NC1CCCCC1c1ccccc1)NC(=O)c1ccc(Nc2nc(NC3(c4ccc(Cl)cc4)CC3)nc(OCC(F)(F)F)n2)cc1 (stereo partly drawn) [Compound 1305] | 0.01 to 10 nM
18 | COC(=O)[C@H](CCNC(=O)C(=O)NCCc1ccccn1)NC(=O)c1ccc(Nc2nc(NC3(c4ccc(Cl)cc4)CC3)nc(OCC(F)(F)F)n2)cc1 [Compound 1306] | 0.01 to 10 nM
19 | COC(=O)[C@H](CCNC(=O)C(=O)NCC(C)c1ccccc1)NC(=O)c1ccc(Nc2nc(NC3(c4ccc(Cl)cc4)CC3)nc(OCC(F)(F)F)n2)cc1 (stereo partly drawn) [Compound 1307] | 0.01 to 10 nM
20 | COC(=O)[C@H](CCNC(=O)C(=O)NCCc1ccccc1)NC(=O)c1ccc(Nc2nc(NC3(c4ccc(Cl)cc4)CC3)nc(OCC(F)(F)F)n2)cc1 [Compound 1308] | 0.01 to 10 nM
21 | COC(=O)[C@H](CCNC(=O)C(=O)NCCc1cccc(OC)c1)NC(=O)c1ccc(Nc2nc(NC3(c4ccc(Cl)cc4)CC3)nc(OCC(F)(F)F)n2)cc1 [Compound 1309] | 0.01 to 10 nM
22 | COC(=O)[C@H](CCNC(=O)C(=O)NCCc1ccc(OC)cc1)NC(=O)c1ccc(Nc2nc(NC3(c4ccc(Cl)cc4)CC3)nc(OCC(F)(F)F)n2)cc1 [Compound 1310] | 0.01 to 10 nM
23 | COC(=O)[C@H](CCNC(=O)C(=O)NCCc1ccncc1)NC(=O)c1ccc(Nc2nc(NC3(c4ccc(Cl)cc4)CC3)nc(OCC(F)(F)F)n2)cc1 [Compound 1311] | 0.01 to 10 nM
24 | COC(=O)[C@H](CCNC(=O)C(=O)NCCc1cccc(F)c1)NC(=O)c1ccc(Nc2nc(NC3(c4ccc(Cl)cc4)CC3)nc(OCC(F)(F)F)n2)cc1 [Compound 1312] | 0.01 to 10 nM
25 | COC(=O)[C@H](CCNC(=O)C(=O)NCCc1ccccc1F)NC(=O)c1ccc(Nc2nc(NC3(c4ccc(Cl)cc4)CC3)nc(OCC(F)(F)F)n2)cc1 [Compound 1313] | 0.01 to 10 nM
26 | COC(=O)[C@H](CCNC(=O)C(=O)NC1Cc2ccccc2C1)NC(=O)c1ccc(Nc2nc(NC3(c4ccc(Cl)cc4)CC3)nc(OCC(F)(F)F)n2)cc1 [Compound 1314] | 0.01 to 10 nM
27 | COC(=O)[C@H](CCNC(=O)C(=O)NCCc1ccc(F)cc1)NC(=O)c1ccc(Nc2nc(NC3(c4ccc(Cl)cc4)CC3)nc(OCC(F)(F)F)n2)cc1 [Compound 1315] | 0.01 to 10 nM
28 | COC(=O)[C@H](CCNC(=O)C(=O)NCCc1cccnc1)NC(=O)c1ccc(Nc2nc(NC3(c4ccc(Cl)cc4)CC3)nc(OCC(F)(F)F)n2)cc1 [Compound 1316] | 0.01 to 10 nM
29 | COC(=O)[C@H](CCNC(=O)C(=O)N[C@H]1C[C@H]1c1ccccc1)NC(=O)c1ccc(Nc2nc(NC3(c4ccc(Cl)cc4)CC3)nc(OCC(F)(F)F)n2)cc1 [Compound 1317] | 0.01 to 10 nM
30 | COC(=O)[C@H](CCNC(=O)C(=O)NCCc1c[nH]cn1)NC(=O)c1ccc(Nc2nc(NC3(c4ccc(Cl)cc4)CC3)nc(OCC(F)(F)F)n2)cc1 [Compound 1318] | 0.01 to 10 nM
31 | COC(=O)[C@H](CCNC(=O)C(=O)NC(C)(C)Cc1ccc(F)cc1)NC(=O)c1ccc(Nc2nc(NC3(c4ccc(Cl)cc4)CC3)nc(OCC(F)(F)F)n2)cc1 [Compound 1319] | 0.01 to 10 nM

Row | SMILES | EC50
32 | COC(=O)[C@H](CCNC(=O)C(=O)NCC1OCCc2ccccc21)NC(=O)c1ccc(Nc2nc(NC3(c4ccc(Cl)cc4)CC3)nc(OCC(F)(F)F)n2)cc1 (stereo partly drawn) [Compound 1320] | 0.01 to 10 nM
33 | COC(=O)[C@H](CCNC(=O)C(=O)NCCn1cncn1)NC(=O)c1ccc(Nc2nc(NC3(c4ccc(Cl)cc4)CC3)nc(OCC(F)(F)F)n2)cc1 [Compound 1321] | 0.01 to 10 nM
34 | COC(=O)[C@H](CCNC(=O)C(=O)NCC1CCCc2ccccc21)NC(=O)c1ccc(Nc2nc(NC3(c4ccc(Cl)cc4)CC3)nc(OCC(F)(F)F)n2)cc1 (stereo partly drawn) [Compound 1322] | 0.01 to 10 nM
35 | COC(=O)[C@H](CCNC(=O)C(=O)NCCn1ccnc1C)NC(=O)c1ccc(Nc2nc(NC3(c4ccc(Cl)cc4)CC3)nc(OCC(F)(F)F)n2)cc1 [Compound 1323] | 0.01 to 10 nM
36 | COC(=O)[C@H](CCNC(=O)C(=O)NCC1CCc2ccccc21)NC(=O)c1ccc(Nc2nc(NC3(c4ccc(Cl)cc4)CC3)nc(OCC(F)(F)F)n2)cc1 (stereo partly drawn) [Compound 1324] | 0.01 to 10 nM
37 | COC(=O)[C@H](CCNC(=O)C(=O)NC1(Cc2ccccc2)CC1)NC(=O)c1ccc(Nc2nc(NC3(c4ccc(Cl)cc4)CC3)nc(OCC(F)(F)F)n2)cc1 [Compound 1325] | 0.01 to 10 nM
38 | O=C(NCCc1ccccn1)C(=O)NCC[C@H](NC(=O)c1ccc(Nc2nc(NC3(c4ccc(Cl)cc4)CC3)nc(OCC(F)(F)F)n2)cc1)C(=O)O [Compound 1326] | 0.01 to 10 nM
39 | CC(CNC(=O)C(=O)NCC[C@H](NC(=O)c1ccc(Nc2nc(NC3(c4ccc(Cl)cc4)CC3)nc(OCC(F)(F)F)n2)cc1)C(=O)O)c1ccccc1 (stereo partly drawn) [Compound 1327] | 0.01 to 10 nM
40 | O=C(NCCc1ccccc1)C(=O)NCC[C@H](NC(=O)c1ccc(Nc2nc(NC3(c4ccc(Cl)cc4)CC3)nc(OCC(F)(F)F)n2)cc1)C(=O)O [Compound 1328] | 0.01 to 10 nM
41 | COc1ccccc1CCNC(=O)C(=O)NCC[C@H](NC(=O)c1ccc(Nc2nc(NC3(c4ccc(Cl)cc4)CC3)nc(OCC(F)(F)F)n2)cc1)C(=O)O [Compound 1329] | 0.01 to 10 nM
42 | COc1cccc(CCNC(=O)C(=O)NCC[C@H](NC(=O)c2ccc(Nc3nc(NC4(c5ccc(Cl)cc5)CC4)nc(OCC(F)(F)F)n3)cc2)C(=O)O)c1 [Compound 1330] | 0.01 to 10 nM
43 | COc1ccc(CCNC(=O)C(=O)NCC[C@H](NC(=O)c2ccc(Nc3nc(NC4(c5ccc(Cl)cc5)CC4)nc(OCC(F)(F)F)n3)cc2)C(=O)O)cc1 [Compound 1331] | 0.01 to 10 nM
44 | O=C(NCCc1ccncc1)C(=O)NCC[C@H](NC(=O)c1ccc(Nc2nc(NC3(c4ccc(Cl)cc4)CC3)nc(OCC(F)(F)F)n2)cc1)C(=O)O [Compound 1332] | 0.01 to 10 nM
45 | O=C(NCCc1cccc(F)c1)C(=O)NCC[C@H](NC(=O)c1ccc(Nc2nc(NC3(c4ccc(Cl)cc4)CC3)nc(OCC(F)(F)F)n2)cc1)C(=O)O [Compound 1333] | 0.01 to 10 nM
46 | O=C(NCCc1ccccc1F)C(=O)NCC[C@H](NC(=O)c1ccc(Nc2nc(NC3(c4ccc(Cl)cc4)CC3)nc(OCC(F)(F)F)n2)cc1)C(=O)O [Compound 1334] | 0.01 to 10 nM
47 | O=C(NCC[C@H](NC(=O)c1ccc(Nc2nc(NC3(c4ccc(Cl)cc4)CC3)nc(OCC(F)(F)F)n2)cc1)C(=O)O)C(=O)NC1Cc2ccccc2C1 [Compound 1335] | 0.01 to 10 nM
48 | O=C(NCCc1ccc(F)cc1)C(=O)NCC[C@H](NC(=O)c1ccc(Nc2nc(NC3(c4ccc(Cl)cc4)CC3)nc(OCC(F)(F)F)n2)cc1)C(=O)O [Compound 1336] | 0.01 to 10 nM
49 | O=C(NCCc1cccnc1)C(=O)NCC[C@H](NC(=O)c1ccc(Nc2nc(NC3(c4ccc(Cl)cc4)CC3)nc(OCC(F)(F)F)n2)cc1)C(=O)O [Compound 1337] | 0.01 to 10 nM
50 | O=C(NCC[C@H](NC(=O)c1ccc(Nc2nc(NC3(c4ccc(Cl)cc4)CC3)nc(OCC(F)(F)F)n2)cc1)C(=O)O)C(=O)N[C@H]1C[C@H]1c1ccccc1 [Compound 1338] | 0.01 to 10 nM
51 | O=C(NCCc1c[nH]cn1)C(=O)NCC[C@H](NC(=O)c1ccc(Nc2nc(NC3(c4ccc(Cl)cc4)CC3)nc(OCC(F)(F)F)n2)cc1)C(=O)O [Compound 1339] | 0.01 to 10 nM
52 | CC(C)(Cc1ccc(F)cc1)NC(=O)C(=O)NCC[C@H](NC(=O)c1ccc(Nc2nc(NC3(c4ccc(Cl)cc4)CC3)nc(OCC(F)(F)F)n2)cc1)C(=O)O [Compound 1340] | 0.01 to 10 nM
53 | O=C(NCC[C@H](NC(=O)c1ccc(Nc2nc(NC3(c4ccc(Cl)cc4)CC3)nc(OCC(F)(F)F)n2)cc1)C(=O)O)C(=O)NCC1OCCc2ccccc21 (stereo partly drawn) [Compound 1341] | 0.01 to 10 nM
54 | O=C(NCC[C@H](NC(=O)c1ccc(Nc2nc(NC3(c4ccc(Cl)cc4)CC3)nc(OCC(F)(F)F)n2)cc1)C(=O)O)C(=O)NCCn1cncn1 [Compound 1342] | 0.01 to 10 nM

Source: US8916702B2 (priority 2012, dated 2014)
